Key:
isolated adipocytes = experiment: Lipolytic activity in vitro on isolated adipocytes (fatty acids released, NEFA C kit); type: cell-based, rats; settings: cirsimarin tested at 0.5 mM and 0.1 mM; 1 hour at 37° C.; FIG. 2
Method: a. Positive references and products to be assessed • Noradrenalin (syn. Norepinephrine NE): this molecule, with a molar mass of […], is assessed at the final concentration of 1 μM in a Krebs-Ringer buffer at 4% albumin. • Caffeine: this molecule, with a molar mass of 194.2 g, is assessed at the final concentration of 0.5 mM in a Krebs-Ringer buffer at 4% albumin. • Theophylline: this molecule, with a molar mass of 180.2, is assessed at the final concentration of 0.5 mM in a Krebs-Ringer buffer at 4% albumin. • Cirsimarin: this molecule, with a molar mass of 476.44, is tested at 0.5 mM and 0.1 mM. This molecule is first solubilized in a mixture of solvents: NaOH 0.2 M/DMSO (95/5; v/v). […]
The lipolytic activity is measured by the quantity of fatty acids released; for this, a NEFA C (Non Esterified Fatty Acid/Colorimetric) colorimetric dosage kit sold by Wako® Chemical GmbH is used.
The quantity of fatty acids present in tubes 0 minus that present in tubes 00 corresponds to the basal lipolysis of the adipocytes in the buffer. The quantity of fatty acids present in tubes 0 solvent minus that present in tubes 00 corresponds to the basal lipolysis of the adipocytes in the buffer containing the cirsimarin solution solvent. The quantity of fatty acids released in reaction tubes minus that present in tubes 00 corresponds to the lipolysis induced by the molecules studied.

A1 receptor = target: T1, A1 receptor (Homo sapiens, UniProt P30542); settings: from literature; cited from earlier work
T1 sequence (P30542 1-326): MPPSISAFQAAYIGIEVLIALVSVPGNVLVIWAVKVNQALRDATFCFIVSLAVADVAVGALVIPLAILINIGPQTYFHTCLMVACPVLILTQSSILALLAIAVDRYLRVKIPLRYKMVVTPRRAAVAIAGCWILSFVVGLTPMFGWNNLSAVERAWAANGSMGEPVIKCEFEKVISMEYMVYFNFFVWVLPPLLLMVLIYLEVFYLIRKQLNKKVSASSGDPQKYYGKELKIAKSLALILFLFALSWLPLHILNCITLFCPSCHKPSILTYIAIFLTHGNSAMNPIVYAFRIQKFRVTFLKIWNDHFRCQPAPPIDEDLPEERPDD

lipolysis = settings: documents by Nogowski and Jacobson; cited from earlier work

Compound | lipolytic activity (quantity of fatty acids released) (isolated adipocytes) | A1 receptor antagonist properties (A1 receptor) | lipolytic activity (lipolysis)
COc1cc2oc(-c3ccc(O[C@@H]4O[C@H](CO)[C@@H](O)[C@H](O)[C@H]4O)cc3)cc(=O)c2c(O)c1OC [cirsimarin, 5-hydroxy-6,7-dimethoxyflavone 4′-O-glucoside] | proven in vitro lipolytic activity | A1 receptor antagonist properties | 
O=c1c(-c2ccc(O)cc2)coc2cc(O)cc(O)c12 [genistein] |  | identified as an A1 receptor antagonist | negligible lipolytic activity

Source: US20060115502A1, “Cosmetic composition based on cirsimarin” (GATTEFOSSE SAS, priority 2003, published 2006)
